Measured values as given in publication PMC5142622, “Attenuation of the Type IV Pilus Retraction Motor Influences Neisseria gonorrhoeae Social and Infection Behavior” (mBio, 2016).

Target: PilT (Neisseria gonorrhoeae, UniProt Q53432)
Conditions: MgCl2 5 mM, Tris 150 mM pH 8.5, NaCl 150 mM, 37 °C; variable ATP, 10 min

Chain of PilT (Q53432 entry or part of it): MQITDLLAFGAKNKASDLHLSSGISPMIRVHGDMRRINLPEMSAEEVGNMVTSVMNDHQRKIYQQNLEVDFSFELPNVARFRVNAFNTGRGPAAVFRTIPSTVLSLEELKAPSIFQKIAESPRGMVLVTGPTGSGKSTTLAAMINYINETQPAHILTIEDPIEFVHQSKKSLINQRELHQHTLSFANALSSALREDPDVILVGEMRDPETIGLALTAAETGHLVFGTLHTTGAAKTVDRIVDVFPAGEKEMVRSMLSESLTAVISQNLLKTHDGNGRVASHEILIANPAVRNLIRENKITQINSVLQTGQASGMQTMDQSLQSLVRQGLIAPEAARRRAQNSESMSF

Compound `Nc1ncnc2c1ncn2[C@@H]1O[C@H](COP(=O)(O)OP(=O)(O)OP(=O)(O)O)[C@@H](O)[C@H]1O` [ATP] has a Km of 0.38 nmol.
